Some results are limits rather than exact numbers.

The first test deals with HCV 1b genotype. The experiment in a line: HCV Replicon assay (HCV-neo replicon cells, wild-type). The format is cell-based. Particulars: HCV 1b genotype replicon; range class A-D; read-out: 1b EC50 (in μM or range). As to the method:
An HCV Replicon assay was utilized in the present disclosure, and was prepared, conducted and validated as described in commonly owned PCT/US2006/022197 and in O′Boyle et. al. Antimicrob Agents Chemother, 2005 April; 49(4):1346-53. Assay methods incorporating luciferase reporters have also been used as described (Apath.com).
HCV-neo replicon cells and replicon cells containing mutations in the NS5A region were used to test the currently described family of compounds. The compounds were determined to have more than 10-fold less inhibitory activity on cells containing mutations than wild-type cells. Thus, the compounds of the present disclosure can be effective in inhibiting the function of the HCV NS5A protein and are understood to be as effective in combinations as previously described in application PCT/US2006/022197 and commonly owned WO/04014852. Further, the compounds of the present disclosure can be effective against the HCV 1b genotype. It should also be understood that the compounds of the present disclosure can inhibit multiple genotypes of HCV. […] In one embodiment, compounds of the present disclosure are inhibitory versus 1a, 1b, 2a, 2b, 3a, 4a, and 5a genotypes.
(In general: Replicon systems follow genome replication, usually without infectious particles.)
`O=C1CN(C(C(=O)N2CCC[C@H]2C(=O)Nc2ccc(C#Cc3ccc(NC(=O)[C@@H]4CCCN4C(=O)C(c4ccccc4)N4CCNC(=O)C4)cc3)cc2)c2ccccc2)CCN1` (single isomer, unassigned) [VN33.5]: the concentration giving a half-maximal response (EC50) was in the range of 0.1 to 0.999 µM. As to `O=C1CN(C(C(=O)N2CCC[C@H]2C(=O)Nc2ccc(C#Cc3ccc(NC(=O)[C@@H]4CCCN4C(=O)C(c4ccccc4)N4CCNC(=O)C4)cc3)cc2)c2ccccc2)CCN1` (single isomer, unassigned) [VN33], the EC50 was less than 0.00457 µM.

Staying with this test, now noted: Hepatitis C virus, HCV 1b genotype replicon; range class A-D; read-out: 1b EC50 (in μM or range).
As for `CN(CC(N)=O)C(C(=O)N1CCC[C@H]1C(=O)Nc1ccc(C#Cc2ccc(NC(=O)[C@@H]3CCCN3C(=O)C(c3ccccc3)N(C)CC(N)=O)cc2)cc1)c1ccccc1` (single isomer, unassigned) [VN34], the concentration for a half-maximal effect (EC50) was less than 0.00457 µM. Take `CC(=O)N(C)C(C(=O)N1CCC[C@H]1C(=O)Nc1ccc(C#Cc2ccc(NC(=O)[C@@H]3CCCN3C(=O)C(c3ccccc3)N(C)C(C)=O)cc2)cc1)c1ccccc1` (single isomer, unassigned) [VN35]: the concentration for a half-maximal effect (EC50) was in the range of 0.1 to 0.999 µM. Same read-out and setting: in the case of `CCN(C)C(C(=O)N1CCC[C@H]1C(=O)Nc1ccc(C#Cc2ccc(NC(=O)[C@@H]3CCCN3C(=O)C(c3ccccc3)N(C)CC)cc2)cc1)c1ccccc1` (single isomer, unassigned) [VN36] it was less than 0.00457 µM. As for `O=C(Nc1ccc(C#Cc2ccc(NC(=O)[C@@H]3CCCN3C(=O)OCc3ccccc3)cc2)cc1)[C@@H]1CCCN1C(=O)OCc1ccccc1` [Example D1, Dibenzyl(2S,2′S)-2,2′-(1,2-ethynediylbis(4,1-phenylenecarbamoyl))di(1-pyrrolidinecarboxylate)], the EC50 was in the range of 0.00457 to 0.099 µM.

For the compound `O=C(Nc1ccc(C#Cc2ccc(NC(=O)[C@@H]3CCCN3C(=O)Cc3ccccc3)cc2)cc1)[C@@H]1CCCN1C(=O)Cc1ccccc1` [Example D2, (2S,2′S)-N,N′-(1,2-ethynediyldi-4,1-phenylene)bis(1-(phenylacetyl)-2-pyrrolidinecarboxamide)], the concentration giving a half-maximal response (EC50) is less than 0.00457 µM. `O=C(Nc1ccc(C#Cc2ccc(NC(=O)C3CC3)cc2)cc1)C1CC1` [Example D3, N,N′-(4,4′-(Ethyne-1,2-diyl)bis(4,1-phenylene))dicyclopropanecarboxamide]: the 50% effective concentration (EC50) lay in the range of 0.00457 to 0.099 µM. Turning to `CC(=O)N1CCC[C@H]1C(=O)Nc1ccc(C#Cc2ccc(NC(=O)C3CCN(C(=O)OCc4ccccc4)C3)cc2)cc1` (stereo partly drawn) [Example D4, Benzyl 3-((4-((4-((1-acetyl-L-prolyl)amino)phenyl)ethynyl)phenyl)carbamoyl)-1-pyrrolidinecarboxylate], the half-maximal effective concentration (EC50) lay in the range of 1 to 10 µM. Regarding `O=C(Nc1ccc(C#Cc2ccc(NC(=O)C3CCN(C(=O)OCc4ccccc4)C3)cc2)cc1)C1CCN(C(=O)OCc2ccccc2)C1` (centres unmarked) [Example D5, Dibenzyl3,3′-(1,2-ethynediylbis(4,1-phenylenecarbamoyl))di(1-pyrrolidinecarboxylate)], the EC50 was in the range of 1 to 10 µM. Regarding `O=C(Nc1ccc(C#Cc2ccc(NC(=O)[C@@H]3CCCN3C(=O)[C@H]3CCCO3)cc2)cc1)C1CC1` [Example D6, N-(4-((4-((cyclopropylcarbonyl)amino)phenyl)ethynyl)phenyl)-1-((2R)-tetrahydro-2-furanylcarbonyl)-L-prolinamide], the EC50 is 0.1 to 0.999 µM. With `CC(=O)N1CCC[C@H]1C(=O)Nc1ccc(C#Cc2ccc(NC(=O)[C@@H]3C[C@@H](OC(C)(C)C)CN3C(=O)OCc3ccccc3)cc2)cc1` [Example D7, Benzyl (2S,4R)-2-((4-((4-((((2S)-1-acetyl-2-pyrrolidinyl)carbonyl)amino)phenyl)ethynyl)phenyl)carbamoyl)-4-tert-butoxy-1-pyrrolidinecarboxylate], the EC50 fell in the range of 1 to 10 µM. For the compound `CC(C)(C)O[C@@H]1C[C@@H](C(=O)Nc2ccc(C#Cc3ccc(NC(=O)[C@@H]4C[C@@H](OC(C)(C)C)CN4C(=O)OCc4ccccc4)cc3)cc2)N(C(=O)OCc2ccccc2)C1` [Example D8, Dibenzyl (2S,4R,2′S,4′R)-2,2′-(1,2-ethynediylbis(4,1-phenylenecarbamoyl))bis(4-tert-butoxy-1-pyrrolidinecarboxylate)], the EC50 lay in the range of 1 to 10 µM.

Turning to `O=C(Nc1ccc(C#Cc2ccc(NC(=O)C3CC(=O)N(CCc4cccs4)C3)cc2)cc1)C1CC(=O)N(CCc2cccs2)C1` (centres unmarked) [Example D10, N,N′-(1,2-ethynediyldi-4,1-phenylene)bis(5-oxo-1-(2-(2-thienyl)ethyl)-3-pyrrolidinecarboxamide)], the EC50 was in the range of 1 to 10 µM. On the same count and under the same terms, then `O=C(Nc1ccc(C#Cc2ccc(NC(=O)[C@@H]3CCCCN3C(=O)OCc3ccccc3)cc2)cc1)[C@@H]1CCCCN1C(=O)OCc1ccccc1` [Example D12, Dibenzyl (2S,2′S)-2,2′-(1,2-ethynediylbis(4,1-phenylenecarbamoyl))di(1-piperidinecarboxylate)], with 0.1 to 0.999 µM; and `CC(=O)N1CCC[C@H]1C(=O)Nc1ccc(C#Cc2ccc(NC(=O)C3CC(=O)N(Cc4ccc(Cl)cc4)C3)cc2)cc1` (stereo partly drawn) [Example D13, 1-Acetyl-N-(4-((4-(((1-(4-chlorobenzyl)-5-oxo-3-pyrrolidinyl)carbonyl)amino)phenyl)ethynyl)phenyl)-L-prolinamide], with 1 to 10 µM. Consider `O=C(Nc1ccc(C#Cc2ccc(NC(=O)C3CC(=O)N(Cc4ccc(Cl)cc4)C3)cc2)cc1)C1CC(=O)N(Cc2ccc(Cl)cc2)C1` (centres unmarked) [Example D14, N,N′-(1,2-ethynediyldi-4,1-phenylene)bis(1-(4-chlorobenzyl)-5-oxo-3-pyrrolidinecarboxamide)], for which the EC50 lay in the range of 1 to 10 µM. Still for that read-out and setting: then `O=C(Nc1ccc(C#Cc2ccc(NC(=O)[C@@H]3CCCN3C(=O)Cc3ccccc3)cc2)cc1)C1CC1` [Example D15, N-(4-((4-((cyclopropylcarbonyl)amino)phenyl)ethynyl)phenyl)-1-(phenylacetyl)-L-prolinamide], with 0.1 to 0.999 µM. On to `O=C(CC1CC1)Nc1ccc(C#Cc2ccc(NC(=O)[C@@H]3CCCN3C(=O)Cc3ccccc3)cc2)cc1` [Example D16, N-(4-((4-((cyclopropylacetyl)amino)phenyl)ethynyl)phenyl)-1-(phenylacetyl)-L-prolinamide], for which the EC50 was 0.1 to 0.999 µM. `O=C(Nc1ccc(C#Cc2ccc(NC(=O)[C@@H]3CCCN3C(=O)Cc3ccccc3)cc2)cc1)[C@H]1CCCO1` [Example D17, 1-(Phenylacetyl)-N-(4-((4-(((2R)-tetrahydro-2-furanylcarbonyl)amino)phenyl)ethynyl)phenyl)-L-prolinamide]: the EC50 fell in the range of 0.1 to 0.999 µM. Take `O=C(Nc1ccc(C#Cc2ccc(NC(=O)[C@@H]3CCCN3C(=O)OCc3ccccc3)cc2)cc1)C1CC1` [Example D18, Benzyl (2S)-2-((4-((4-((cyclopropylcarbonyl)amino)phenyl)ethynyl)phenyl)carbamoyl)-1-pyrrolidinecarboxylate]: the EC50 fell in the range of 0.1 to 0.999 µM.

Consider `O=C(CC1CC1)Nc1ccc(C#Cc2ccc(NC(=O)[C@@H]3CCCN3C(=O)OCc3ccccc3)cc2)cc1` [Example D19, Benzyl (2S)-2-((4-((4-((cyclopropylacetyl)amino)phenyl)ethynyl)phenyl)carbamoyl)-1-pyrrolidinecarboxylate], for which the EC50 was 0.1 to 0.999 µM. Consider `O=C(Nc1ccc(C#Cc2ccc(NC(=O)[C@@H]3CCCN3C(=O)OCc3ccccc3)cc2)cc1)C1CCC1` [Example D20, Benzyl (2S)-2-((4-((4-((cyclobutylcarbonyl)amino)phenyl)ethynyl)phenyl)carbamoyl)-1-pyrrolidinecarboxylate], for which the EC50 was in the range of 0.1 to 0.999 µM. Same read-out and setting: then `O=C(Nc1ccc(C#Cc2ccc(NC(=O)[C@@H]3CCCN3C(=O)OCc3ccccc3)cc2)cc1)[C@H]1CCCO1` [Example D21, Benzyl (2S)-2-((4-((4-(((2R)-tetrahydro-2-furanylcarbonyl)amino)phenyl)ethynyl)phenyl)carbamoyl)-1-pyrrolidinecarboxylate], with 0.1 to 0.999 µM.

As to `O=C(Nc1ccc(C#Cc2ccc(NC(=O)[C@@H]3CCCN3C(=O)[C@H]3CCCO3)cc2)cc1)C1CCC1` [Example D24, N-(4-((4-((cyclobutylcarbonyl)amino)phenyl)ethynyl)phenyl)-1-((2R)-tetrahydro-2-furanylcarbonyl)-L-prolinamide], the EC50 lay within 1 to 10 µM.

The same test, now with this note: Hepatitis C virus, HCV 1b genotype replicon; read-out: 1b EC50 (in μM or range).
`CC(=O)N1CCC[C@H]1C(=O)Nc1ccc(C#Cc2ccc(NC(=O)C3CC(=O)N(CCc4cccs4)C3)cc2)cc1` (stereo partly drawn) [Example D9, 1-Acetyl-N-(4-((4-(((5-oxo-1-(2-(2-thienyl)ethyl)-3-pyrrolidinyl)carbonyl)amino)phenyl)ethynyl)phenyl)-L-prolinamide]: the half-maximal effective concentration (EC50) is 2.42 µM. Turning to `CC(=O)N1CCC[C@H]1C(=O)Nc1ccc(C#Cc2ccc(NC(=O)[C@@H]3CCCCN3C(=O)OCc3ccccc3)cc2)cc1` [Example D11, Benzyl (2S)-2-((4-((4-((1-acetyl-L-prolyl)amino)phenyl)ethynyl)phenyl)carbamoyl)-1-piperidinecarboxylate], the half-maximal effective concentration (EC50) was determined as 0.59 µM. For `CC(=O)N1CCC[C@H]1C(=O)Nc1ccc(C#Cc2ccc(NC(=O)[C@@H]3CCCN3C(=O)Cc3ccccc3)cc2)cc1` [Example D22, (2S)-1-Acetyl-N-(4-((4-((((2S)-1-(phenylacetyl)-2-pyrrolidinyl)carbonyl)amino)phenyl)ethynyl)phenyl)-2-pyrrolidinecarboxamide], the 50% effective concentration (EC50) was 0.14 µM. The same measure, in the same setting: in the case of `O=C(CC1CC1)Nc1ccc(C#Cc2ccc(NC(=O)[C@@H]3CCCN3C(=O)[C@H]3CCCO3)cc2)cc1` [Example D23, N-(4-((4-((cyclopropylacetyl)amino)phenyl)ethynyl)phenyl)-1-((2R)-tetrahydro-2-furanylcarbonyl)-L-prolinamide] it was 2.6 µM.

A word on the EC50: it is the concentration giving half of the maximal effect.
